Data taken from patent US20100120679A1, “Targeting NBS1-ATM Interaction To Sensitize Cancer Cells To Radiotherapy And Chemotherapy” (SOUTHERN RESEARCH INSTITUTE, priority 2006, published 2010).
Peptide text beside a SMILES is read from it. * marks the point of attachment. Biotin = O=C1N[C@H]2[C@H](CS[C@H]2CCCCC(=O)*)N1

Assays:
[1] = tested on: prostate cancer cell line DU-145; experiment: Colony formation assay (radiosensitivity), DU-145; type: cell-based, human
Protocol: (§1) Colony number was determined with a dissecting microscope. […] The following formula was used: […]
Radiation survival curves were characterized based on Do to define the effect of NIP effect on radiosensitivity. D0 represents the mean lethal dose required for 37% survival and is a measure of the intrinsic radiosensitivity of the cell. D0 values for HeLa treated with wtNIP were 1.9 compared with 3.0 for cells treated with scNIP. To establish the statistical significance of wtNIP-induced radiosensitivity, Student's t test (paired two-sample for means) was incorporated. […] Significant differences (p<0.05) in clonogenic survival were observed between cells treated with wtNIP and those treated with DMEM, R9, or scNIP. The SER was 1.58. […] These observations have been confirmed in the prostate cancer cell line DU-145 with an SER of 1.46. Taken as a whole, they provide strong evidence for the radiosensitizing potential of the wtNIP peptide.

[2] = tested on: NBS1 phosphorylation on serine 343 in DU-145 cells; experiment: IR-induced NBS1 pSer343 focus formation, DU-145; type: cell-based, human; conditions: DU-145, 10 μM peptide, 6Gy, 120 minutes
Text: (§2) Error bars represent +/−1 SD, graphed are the mean of three independent experiments.
(§3) To further support the idea that wtNIP can inhibit ATM-mediated DNA damage pathways, IR-induced NBS1 focus formation, an event considered to be an ATM-dependent process at the sites of DSBs (Lim et al., 2000) was investigated. NBS1 foci are a result of ATM-mediated NBS1 phosphorylation on serine 343. […] The average number of foci in mock-irradiated HeLa cells was 6, 8, and 6 for R9, wtNIP, and scNIP, respectively.

[3] = tested on: M059J cells (defective DNA-PKcs); experiment: Colony formation assay (radiosensitivity), M059J; type: cell-based
Protocol: as §1
(§4) To test this possibility, colonyforming assays were performed in cell lines with defective ATM (GM9607) or DNA-PKcs (M059J). […] Because GM9607 cells are ATM-deficient and have functional ATR and DNA-PKcs, these observations strongly indicate that wtNIP can specifically target ATM, but not ATR or DNA-PKcs, to achieve radiosensitization.

NBS1-ATM interaction = target: T1, NBS1-ATM interaction (Homo sapiens, UniProt Q13315); experiment: Co-immunoprecipitation of ATM with NBS1 in peptide-treated cells; type: cell-based
T1 construct: endogenous in cells; host or cells: HeLa
Protocol: HeLa cells treated with the NIP peptides were irradiated (0 or 6Gy). Immunoprecipitation was performed with a rabbit NBS1 antibody, and Western blotting was performed with monoclonal antibodies against ATM, NBS1 or MRE11.
Immunoprecipitation and Western blotting: For co-immunoprecipitation of ATM, NBS1 and MRE11, cells were lysed 1 hour in ice-cold lysis buffer, which consisted of 10 mM Tris-HCl (pH 7.5), 100 mM NaCl, 5 mM EDTA, 0.5% NP-40, 5 mM Na3VO4, 1 mM NaF, and 1 mM PMSF. After centrifugation, supernatants were incubated with indicated antibodies. After extensive washing with the lysis buffer, immunoprecipitates were analyzed by immunoblot using specific antibodies. For western blotting analysis, samples (cell lysates or immunoprecipitates) were separated on 4-12% SDS-poly-acrylamide gels, transferred to nitrocellulose membranes, and probed with various antibodies.
wtNIP Abrogated the NBS1-ATM Interaction: To investigate whether R9-conjugated NIP peptides could inhibit NBS1-ATM interactions, coimmunoprecipitation experiments were performed in cells treated with the NIP peptides. Four hours after peptide treatment, HeLa cells were harvested and subjected to immunoprecipitation using an anti-NBS1 antibody. The immunoprecipitates were then blotted with anti-ATM, NBS1, and MRE11 antibodies.

[4] = tested on: γ-H2AX foci in DU-145 cells; experiment: IR-induced γ-H2AX focus formation, DU-145; type: cell-based, human; conditions: 10 μM peptide, 6Gy
Text: as §2
wtNIP Inhibits IR-Induced γ-H2AX and NBS1 pSer343 Focus Formation: One of the earliest responses to IR-induced DNA damage is the formation of γ-H2AX foci, which requires functional ATM (Burma et al., 2001; Furuta et al., 2003). […] Immunofluorescence microscopy was used to detect the presence of γ-H2AX foci in mock-irradiated or irradiated cells in the presence of R9, wtNIP or scNIP. […] Therefore, IR-induced γ-H2AX focus formation can be inhibited by wt-NIP.

[5] = tested on: GM9607 cells (defective ATM); experiment: Colony formation assay (radiosensitivity), GM9607; type: cell-based, human
Protocol: as §1, §4

[6] = tested on: NBS1 phosphorylation on serine 343 in HeLa cells; experiment: IR-induced NBS1 pSer343 focus formation, HeLa; type: cell-based, human
Text: as §2, §3

HeLa cells = experiment: Colony formation assay (radiosensitivity), HeLa
Protocol: Shown in A (HeLa), C (MO59J) and D (GM9607) are the susvival curves after indicated doses of radiation. Error bars represent +/−1 SEM, graphed are the mean of three independent experiments.
Colony formation assays: To determine the radiosensitivity, the colony forming assay was incorporated. Cells were harvested with 0.125% trypsin-0.05% EDTA, pelleted and re-suspended in 1 ml fresh media with a 22 g needle to disperse clumps prior to hemocytometer counting in trypan blue. Cells were then plated at limiting dilutions in […] and allowed to adhere overnight. Cultures were treated with PBS, R9, wtNIP, or scNIP for 1 hour, and irradiated (0-6Gy). Fresh peptides were added every four hours until 24 hours after IR, when the medium was replaced with peptide-free medium. Cultures were incubated for 10-12 days, harvested and stained with 0.5% crystal violet in methanol. Colony number was determined with a dissecting microscope. A population of >50 cells was counted as one colony, and the number of colonies was expressed as a percentage of the value for untreated mock irradiated control cells. The surviving curves were plotted by linear regression analyses and the D0 value represents the radiation dose that leads to 37% of survival. To determine the radiosensitizing potential of the peptides in comparison to other small molecule inhibitors, the sensitizing enhancement ratio (SER) was calculated based on the dose of radiation required to reduce survival to 37% in the presence of scNIP or wtNIP. The following formula was used: […]
Statistics: To establish statistical significance, Student's t-test was incorporated. The data were first fit to each experimental group over a dose range of 0-6Gy. Significant differences were established at p<0.05.
FIG. 6A depicts the survival curves for HeLa cells treated with R9, wtNIP, or scNIP over a dose range of 0 to 6 Gy.

T1 sequence (Q13315 whole entry): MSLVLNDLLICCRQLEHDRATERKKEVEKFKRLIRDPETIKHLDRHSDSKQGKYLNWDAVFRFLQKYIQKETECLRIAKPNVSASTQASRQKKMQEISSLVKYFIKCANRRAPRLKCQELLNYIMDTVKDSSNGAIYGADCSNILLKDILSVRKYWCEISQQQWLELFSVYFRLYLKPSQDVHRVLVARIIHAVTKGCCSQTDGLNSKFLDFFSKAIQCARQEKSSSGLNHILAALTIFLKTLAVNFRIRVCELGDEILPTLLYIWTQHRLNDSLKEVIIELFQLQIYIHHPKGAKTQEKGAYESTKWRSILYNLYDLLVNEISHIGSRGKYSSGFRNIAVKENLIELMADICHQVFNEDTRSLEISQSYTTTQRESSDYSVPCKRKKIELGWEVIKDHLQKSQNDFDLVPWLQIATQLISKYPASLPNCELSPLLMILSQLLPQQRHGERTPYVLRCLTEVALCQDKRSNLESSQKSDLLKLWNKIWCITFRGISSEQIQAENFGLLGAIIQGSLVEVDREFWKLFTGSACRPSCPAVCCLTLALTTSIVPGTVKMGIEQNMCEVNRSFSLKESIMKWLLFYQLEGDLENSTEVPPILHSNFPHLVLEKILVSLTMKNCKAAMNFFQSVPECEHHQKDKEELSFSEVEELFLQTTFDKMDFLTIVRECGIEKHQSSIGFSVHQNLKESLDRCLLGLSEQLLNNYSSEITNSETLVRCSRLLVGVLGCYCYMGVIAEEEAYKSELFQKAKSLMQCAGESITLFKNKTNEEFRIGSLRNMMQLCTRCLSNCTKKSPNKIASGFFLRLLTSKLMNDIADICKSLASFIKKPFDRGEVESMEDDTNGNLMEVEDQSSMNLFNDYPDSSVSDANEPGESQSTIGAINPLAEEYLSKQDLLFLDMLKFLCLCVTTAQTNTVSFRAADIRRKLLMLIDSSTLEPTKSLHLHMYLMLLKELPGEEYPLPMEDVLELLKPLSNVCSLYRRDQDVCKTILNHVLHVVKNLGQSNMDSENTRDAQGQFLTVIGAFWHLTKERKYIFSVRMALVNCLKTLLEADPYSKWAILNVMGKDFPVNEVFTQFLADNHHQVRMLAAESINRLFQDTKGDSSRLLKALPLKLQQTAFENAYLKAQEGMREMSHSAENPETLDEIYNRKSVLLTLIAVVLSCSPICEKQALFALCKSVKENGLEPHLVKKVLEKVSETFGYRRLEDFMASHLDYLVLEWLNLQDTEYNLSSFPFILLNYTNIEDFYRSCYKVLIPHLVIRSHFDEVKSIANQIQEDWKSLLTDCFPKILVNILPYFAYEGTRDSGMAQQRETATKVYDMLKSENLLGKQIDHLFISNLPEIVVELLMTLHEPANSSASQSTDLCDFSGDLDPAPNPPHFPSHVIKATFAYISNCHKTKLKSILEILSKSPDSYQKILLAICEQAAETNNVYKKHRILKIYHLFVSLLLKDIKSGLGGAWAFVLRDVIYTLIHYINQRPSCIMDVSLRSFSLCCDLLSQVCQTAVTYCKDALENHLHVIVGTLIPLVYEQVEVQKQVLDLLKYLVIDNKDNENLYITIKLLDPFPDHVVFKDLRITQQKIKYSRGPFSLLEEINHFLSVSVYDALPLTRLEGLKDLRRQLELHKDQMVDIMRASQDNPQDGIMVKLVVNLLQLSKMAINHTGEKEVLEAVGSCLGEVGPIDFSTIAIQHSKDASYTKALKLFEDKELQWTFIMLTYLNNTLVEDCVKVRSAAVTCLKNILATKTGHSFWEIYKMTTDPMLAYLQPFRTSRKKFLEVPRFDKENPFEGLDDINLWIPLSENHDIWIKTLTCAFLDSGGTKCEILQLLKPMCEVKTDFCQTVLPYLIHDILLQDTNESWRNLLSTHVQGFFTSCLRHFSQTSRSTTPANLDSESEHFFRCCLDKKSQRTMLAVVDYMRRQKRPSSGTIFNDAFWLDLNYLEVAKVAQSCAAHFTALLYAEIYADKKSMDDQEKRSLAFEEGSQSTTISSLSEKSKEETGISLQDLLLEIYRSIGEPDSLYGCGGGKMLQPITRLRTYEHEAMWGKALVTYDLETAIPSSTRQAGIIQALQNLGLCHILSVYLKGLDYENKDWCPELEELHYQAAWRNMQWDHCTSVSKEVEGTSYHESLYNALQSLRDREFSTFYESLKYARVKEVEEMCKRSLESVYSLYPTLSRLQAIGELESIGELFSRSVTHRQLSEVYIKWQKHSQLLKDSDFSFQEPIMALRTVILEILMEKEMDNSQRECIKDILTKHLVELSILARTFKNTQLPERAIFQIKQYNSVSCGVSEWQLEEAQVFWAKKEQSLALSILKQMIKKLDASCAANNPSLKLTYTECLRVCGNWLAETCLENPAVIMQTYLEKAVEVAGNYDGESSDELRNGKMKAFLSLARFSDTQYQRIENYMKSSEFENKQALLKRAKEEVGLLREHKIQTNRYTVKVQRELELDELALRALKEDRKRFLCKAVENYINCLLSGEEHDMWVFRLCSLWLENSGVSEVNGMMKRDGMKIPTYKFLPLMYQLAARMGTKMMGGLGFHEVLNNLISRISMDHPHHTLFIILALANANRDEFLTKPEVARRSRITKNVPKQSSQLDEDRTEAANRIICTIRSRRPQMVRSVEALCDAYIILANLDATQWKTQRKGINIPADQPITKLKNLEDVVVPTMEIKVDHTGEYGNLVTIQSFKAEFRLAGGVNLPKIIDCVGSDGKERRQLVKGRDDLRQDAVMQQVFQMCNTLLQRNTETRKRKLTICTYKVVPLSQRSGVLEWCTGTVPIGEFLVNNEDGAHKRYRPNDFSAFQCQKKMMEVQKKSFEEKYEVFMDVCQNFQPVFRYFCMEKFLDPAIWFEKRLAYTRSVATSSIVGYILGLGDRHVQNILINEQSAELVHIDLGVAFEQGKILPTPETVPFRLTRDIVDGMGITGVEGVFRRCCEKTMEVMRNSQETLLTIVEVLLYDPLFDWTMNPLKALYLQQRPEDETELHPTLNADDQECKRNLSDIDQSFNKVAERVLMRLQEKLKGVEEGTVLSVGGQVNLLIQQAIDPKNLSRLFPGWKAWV

CC(C)C[C@H](NC(=O)[C@H](CC(=O)O)NC(=O)[C@H](CC(=O)O)NC(=O)[C@H](C)NC(=O)[C@H](CC(C)C)NC(=O)[C@H](CO)NC(=O)[C@H](CCC(=O)O)NC(=O)[C@H](CCC(=O)O)NC(=O)[C@H](CCCCN)NC(=O)[C@H](CCCNC(=N)N)NC(=O)[C@H](CCCNC(=N)N)NC(=O)[C@H](CCCNC(=N)N)NC(=O)[C@H](CCCNC(=N)N)NC(=O)[C@H](CCCNC(=N)N)NC(=O)[C@H](CCCNC(=N)N)NC(=O)[C@H](CCCNC(=N)N)NC(=O)[C@H](CCCNC(=N)N)NC(=O)[C@H](CCCNC(=N)N)NC(=O)CCCC[C@@H]1SC[C@@H]2NC(=O)N[C@@H]21)C(=O)O [wtNIP] (Biotin-RRRRRRRRRKEESLADDL-OH)
SER [1]: 1.46
IR-induced NBS1 phosphorylation [2]: abrogates IR-induced NBS1 phosphorylation
SER [3]: 1.83
change in radiosensitivity [3]: increase in radiosensitivity
ATM-NBS1 association (anti-NBS1 immunoprecipitation, anti-ATM blot) (NBS1-ATM interaction; HeLa cells treated with IR): effect similar to that in unirradiated cells
ATM-NBS1 association (anti-NBS1 immunoprecipitation, anti-ATM blot) (NBS1-ATM interaction; HeLa cells, four hours after peptide treatment, unirradiated): NBS1 was no longer able to bring down ATM
IR-induced γ-H2AX focus formation [4]: significantly reduced H2AX foci/nucleus
change in radiosensitivity [5]: no change in radiosensitivity
NBS1 pSer343 foci per nucleus ([6]; HeLa cells after treatment with 6-Gy IR): 6 foci per nucleus
NBS1 phosphorylation (anti-phospho-Ser343 NBS1 antibody) ([6]; compared with R9 or scNIP treated cells): significantly inhibited
average number of NBS1 pSer343 foci ([6]; mock-irradiated HeLa cells): 8
D0 (mean lethal dose required for 37% survival) (HeLa cells): 1.9
SER (dose required to reduce survival to 37%, scNIP versus wtNIP) (HeLa cells): 1.58
sensitizer enhancement ratio (HeLa cells; 2Gy): 1.66
sensitizer enhancement ratio (HeLa cells; 4Gy): 2.61
sensitizer enhancement ratio (HeLa cells; 6Gy): 3.12
effect on radiosensitivity / IR-induced survival (HeLa cells; dose range 0 to 6 Gy): can significantly decrease IR-induced survival
